Test results: patent US12590097B2 (priority 2020, dated 2026)

Legend:
in vitro = in vitro ADME; conditions: human plasma containing 5 mM MgCl2, 37° C., LC-MS/MS; read-out: T1/2 (h) Plasma (converted)
Procedure: (§1) To 1 mL of human plasma containing 5 mM MgCl2 was added 2 μL of a solution of 50 mM compound to be tested in DMSO, and the mixture was incubated at 37° C. 100 μL of sample was taken at different time points, into which 200 μL of methanol was added, and the mixture was centrifuged at 14000 rpm at 4° C. for 30 min. 100 μL of supernatant was taken, into which 100 μL of methanol was added, and the mixture was frozen at −20° C. for later use.
(§2) The content of the compound to be tested in plasma or liver microsome was determined by LC-MS/MS, and the half-life was calculated. Instruments: Prominence 20 A liquid chromatograph from Shimadzu, API 4000 Q-TRAP mass spectrometer from Applied Biosystems; mass spectrometry conditions: ESI negative ion detection; chromatographic column: Diamonsil C18 (100×4.6 mm, 5 μm) chromatographic column; column temperature: 40° C.; flow rate: 0.5 mL/min. Mobile phase A: methanol; mobile phase B: 5% aqueous methanol solution (containing 2 mM ammonium formate); flow rate: 0.5 mL/min; gradient elution as shown in the following table: […]

[1] = Pharmacokinetic evaluation in beagle dogs; format: in vivo; conditions: for Cmax: male, dog, po, plasma, intragastric, II-1 5 mg/kg, II-6 5.13 mg/kg, I-5-B 5.27 mg/kg, read-out: Cmax(ng/ml) Prodrug prototype
Procedure: Male beagle dogs (7-8 months old, weighing 7-10 kg) were randomly divided into groups (2 beagle dogs per group) and weighed. The beagle dogs were fasted for 12 h before administration. The sample to be tested at a certain concentration was ground and suspended in 0.5% sodium carboxymethylcellulose solution, and II-1 (5 mg/kg), II-6 (5.13 mg/kg) or I-5-B (5.27 mg/kg) was administered intragastrically to the beagle dogs. Before administration and 0.5 h, 1 h, 2 h, 4 h, 6 h, 8 h, 10 h and 24 h after administration, 0.5 mL of blood was collected from the cephalic vein of forelimb separately, anticoagulated with sodium heparin, centrifuged to separate out the plasma, which was stored at −80° C. for determination.
50 μL of drug-containing plasma was taken, into which 50 μL of methanol and 100 μL of internal-standard acetaminophen methanol solution were added, and the mixture was vortexed for 1 min and centrifuged at 12000 rpm for 10 min at 4° C. The supernatant was taken and placed in an internal insert tube for quantitative analysis by LC-MS/MS (the method was the same as that in Example 7).

[2] = Evaluation of metabolic stability in human liver microsome (human liver S9 components); format: in vitro ADME; conditions: liver S9 components (headed liver microsome); human liver S9 components 4 mg/mL, pH 7.4, 37° C., LC-MS/MS; read-out: T1/2 (h) Liver microsome (converted)
Procedure: as §1, with “buffer” for “human plasma”, “MgCl2 and 50 mM K2HPO4 (pH 7.4)” for “MgCl2”, “DMSO, then human liver S9 components were added to reach 4 mg/mL,” for “DMSO,”, “300” for “200”, “rpm for 30 min” for “rpm”, “C.” for “C. for 30 min.”
as §2

hepatitis B = conditions: ducks; disclosed in CN103804417A; cited from earlier work

SMILES | half-life at 100 µM (in vitro) [h] | Cmax [1] [ng/mL] | half-life at 100 µM [2] [h] | plasma concentration of the prodrug prototype (in words, versus I-5-B) ([1]; intragastric administration) | antiviral effect on hepatitis B in vivo (in words) (hepatitis B) | prodrug prototype present in plasma (in words) [1] | transformation into the active form (in words) [1]
C=C1[C@H](CO[P@@](=O)(N[C@@H](C)C(=O)OC)Oc2ccc(C)cc2)[C@@H](O)C[C@@H]1n1cnc2c(=O)[nH]c(N)nc21 [II-6, 2-amino-1,9-dihydro-9-[(1S,3R,4S)-4-hydroxy-3-((S)-((S)-1-methoxycarbonylethylamino-(4-methyl-phenyl)oxy-phosphoryl)-oxymethyl)-2-methylenecyclopentyl]-6H-purin-6-one] | 10.8 | 633 | 0.19 | – | – | – | –
C=C1[C@H](CO[P@@](=O)(N[C@@H](C)C(=O)OC)Oc2ccc(Cl)cc2)[C@@H](O)C[C@@H]1n1cnc2c(=O)[nH]c(N)nc21 [II-3, 2-amino-1,9-dihydro-9-[(1S,3R,4S)-4-hydroxy-3-((S)-((S)-1-methoxycarbonylethylamino-(4-chloro-phenyl)oxy-phosphoryl)-oxymethyl)-2-methylenecyclopentyl]-6H-purin-6-one] | 7.5 | – | 0.06 | – | – | – | –
C=C1[C@H](CO[P@@](=O)(N[C@@H](C)C(=O)OC)Oc2ccccc2)[C@@H](O)C[C@@H]1n1cnc2c(=O)[nH]c(N)nc21 [II-1, 2-amino-1,9-dihydro-9-[(1S,3R,4S)-4-hydroxy-3-((S)-((S)-1-methoxycarbonylethylamino-phenoxy-phosphoryl)-oxymethyl)-2-methylenecyclopentyl]-6H-purin-6-one] | 15.3 | 331 | 0.27 | significantly lower than that of the I-5-B | – | – | –
C=C1[C@H](CO[P@@](=O)(N[C@@H](C)C(=O)OC)Oc2ccc(OC)cc2)[C@@H](O)C[C@@H]1n1cnc2c(=O)[nH]c(N)nc21 [II-5, 2-amino-1,9-dihydro-9-[(1S,3R,4S)-4-hydroxy-3-((S)-((S)-1-methoxycarbonylethylamino-(4-methoxy-phenyl)oxy-phosphoryl)-oxymethyl)-2-methylenecyclopentyl]-6H-purin-6-one] | 4.9 | – | 0.03 | – | – | – | –
C=C1[C@H](CO[P@@](=O)(N[C@@H](C)C(=O)OC)Oc2ccc(F)cc2)[C@@H](O)C[C@@H]1n1cnc2c(=O)[nH]c(N)nc21 [II-2, 2-amino-1,9-dihydro-9-[(1S,3R,4S)-4-hydroxy-3-((S)-((S)-1-methoxycarbonylethylamino-(4-fluoro-phenyl)oxy-phosphoryl)-oxymethyl)-2-methylenecyclopentyl]-6H-purin-6-one] | 10.6 | – | 0.13 | – | – | – | –
C=C1[C@H](CO[P@@](=O)(N[C@@H](C)C(=O)OC)Oc2ccc(Br)cc2)[C@@H](O)C[C@@H]1n1cnc2c(=O)[nH]c(N)nc21 [II-4, 2-amino-1,9-dihydro-9-[(1S,3R,4S)-4-hydroxy-3-((S)-((S)-1-methoxycarbonylethylamino-(4-bromo-phenyl)oxy-phosphoryl)-oxymethyl)-2-methylenecyclopentyl]-6H-purin-6-one] | 6.2 | – | 0.06 | – | – | – | –
C=C1[C@H](CO[P@@](=O)(N[C@@H](C)C(=O)OC(C)C)Oc2ccccc2)[C@@H](O)C[C@@H]1n1cnc2c(=O)[nH]c(N)nc21 [I-5-B, 2-amino-1,9-dihydro-9-[(1S,3R,4S)-4-hydroxy-3-((S)-((S)-1-isopropoxycarbonylethylamino-phenoxy-phosphoryl)-oxymethyl)-2-methylenecyclopentyl]-6H-purin-6-one, reference compound] | > 24 | 864 | 0.4 | – | good antiviral effect | high concentration | can not be completely transformed into the active form
